Tests used:
J774 [1] = assay: Cytotoxicity against mouse J774 cells at 12.5 uM incubated for 72 hrs by MTT assay relative to control; type: toxicity, cell-based; conditions: j774, 72 h
J774 [2] = assay: Cytotoxicity against mouse J774 cells at 25 uM incubated for 72 hrs by MTT assay relative to control; type: toxicity, cell-based; conditions: j774, 72 h
J774 [3] = assay: Cytotoxicity against mouse J774 cells at 50 uM incubated for 72 hrs by MTT assay relative to control; type: toxicity, cell-based; conditions: j774, 72 h
Leishmania donovani [4] = assay: Antileishmanial activity against Leishmania donovani promastigotes measured after 48 hrs by MTT assay; type: functional, organism-based
Leishmania donovani [5] = assay: Antileishmanial activity against Leishmania donovani amastigotes infected in J774 macrophage assessed as inhibition of parasite growth incubated for 48 hrs by luciferase assay; type: functional, organism-based; conditions: J774, 48 h
J774 [6] = assay: Cytotoxicity against mouse J774 macrophage incubated for 72 hrs by MTT assay; type: functional
[7] = Selectivity index, ratio of CC50 for mouse J774 macrophage to IC50 for Leishmania donovani amastigotes infected in J774 macrophage; type: toxicity; conditions: J774 macrophages, read-out: Ratio CC50/IC50

| Compound | Activity (J774 [1]) [%] | Activity (J774 [2]) [%] | Activity (J774 [3]) [%] | IC50 (Leishmania donovani [4]) [µM] | IC50 (Leishmania donovani [5]) [µM] | CC50 (J774 [6]) [µM] | selectivity ratio [7] |
| --- | --- | --- | --- | --- | --- | --- | --- |
| CCn1c(-c2ccc(OCC(=O)Nc3ccc(C)cc3)cc2)nc2ccccc2c1=O | 85.97 | 68.99 | 37.91 | 8.43 | 10.1 | 40.9 | 4.03 |
| Cn1c(-c2ccc(OCC(=O)Nc3ccc(C(C)(C)C)cc3)cc2)nc2ccccc2c1=O | 59.75 | 55.66 | 26.84 | – | – | – | – |
| CCn1c(-c2ccc(OCC(=O)Nc3cccc(C(F)(F)F)c3)cc2)nc2ccccc2c1=O | 87.75 | 77.31 | 47.72 | 19.8 | 20.9 | 45 | 2.15 |
| Cc1ccc(NC(=O)COc2ccc(-c3nc4ccccc4c(=O)n3C)cc2)cc1 | 85.59 | 81.98 | 49.93 | 22.1 | 24.5 | 50.7 | 2.07 |
| Cn1c(-c2ccc(OCC(=O)Nc3ccc([N+](=O)[O-])cc3)cc2)nc2ccccc2c1=O | 84.05 | 80.58 | 55.85 | 18.8 | 22.2 | 54.4 | 2.45 |
| Cn1c(-c2cccc(OCC(=O)Nc3ccc(F)cc3)c2)nc2ccccc2c1=O | 66.92 | 56.86 | 31.32 | – | – | – | – |
| COc1ccc(NC(=O)COc2ccc(-c3nc4ccccc4c(=O)n3C)cc2)cc1OC | 83.52 | 67.45 | 37.47 | 7.86 | 10.5 | 37 | 3.53 |
| Cn1c(-c2ccc(OCC(=O)Nc3ccncc3)cc2)nc2ccccc2c1=O | 71.91 | 51.89 | 40.96 | – | – | – | – |
| Cn1c(-c2ccc(OCC(=O)Nc3ccccc3)cc2)nc2ccccc2c1=O | 87.94 | 78.47 | 42.62 | 17.6 | 22.6 | 43.2 | 1.91 |
| CCc1ccc(NC(=O)COc2ccc(-c3nc4ccccc4c(=O)n3C)cc2)cc1 | 81.78 | 79.14 | 33.38 | 15.1 | 20.1 | 38.1 | 1.89 |
| Cn1c(-c2cccc(OCC(=O)Nc3cccc(C(F)(F)F)c3)c2)nc2ccccc2c1=O | 69.23 | 53.5 | 36.03 | – | – | – | – |
| Cc1ccc(NC(=O)COc2ccc(-c3nc4ccccc4c(=O)n3C)cc2)cc1Cl | 68.41 | 52.13 | 47.78 | – | – | – | – |
| CCn1c(-c2ccc(OCC(=O)Nc3ccc(Cl)cc3)cc2)nc2ccccc2c1=O | 67.21 | 47.53 | 32.52 | – | – | – | – |
| Cn1c(-c2ccc(OCC(=O)Nc3ccc4c(c3)OCO4)cc2)nc2ccccc2c1=O | 85.01 | 78.08 | 45.89 | 17.5 | 21.5 | 48.5 | 2.25 |
| Cn1c(-c2ccc(OCC(=O)Nc3ccccn3)cc2)nc2cc(F)ccc2c1=O | 85.3 | 58.74 | 30.36 | 6.25 | 9.16 | 35.1 | 3.82 |

Source: ChEMBL document CHEMBL5620379, “Discovery, SAR and mechanistic studies of quinazolinone-based acetamide derivatives in experimental visceral leishmaniasis” (Eur J Med Chem, 2023)
